Laboratory results: article PMC12314375, “The GTPase κB-Ras is an essential subunit of the RalGAP tumor suppressor complex” (The Journal of Biological Chemistry, 2025)
Positions count from the first letter of the chain named.

How the values were obtained:
κB-Ras1–RGα2N complex = target: T1, κB-Ras1–RGα2N complex (Homo sapiens, UniProt Q9NYS0); test: X-ray crystal structure, […] Å; details: Mg2+; 100 µM GNP added; nucleotide-binding pocket of κB-Ras1
T1 construct: gene NKIRAS1; GST-κB-Ras1 (2-175; 1-175 in Results) coexpressed in bacteria with 6xHis-SUMO-RGα2N (2-255, N-terminal domain); SUMO protease added, purified essentially as before, SEC
T1 sequence (Q9NYS0 2-175): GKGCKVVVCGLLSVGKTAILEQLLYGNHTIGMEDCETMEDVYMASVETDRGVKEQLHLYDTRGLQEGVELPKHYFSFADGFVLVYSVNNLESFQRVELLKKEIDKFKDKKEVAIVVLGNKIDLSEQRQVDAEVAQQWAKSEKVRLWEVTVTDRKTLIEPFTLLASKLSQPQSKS
T1 sequence (Q2PPJ7 2-255 partner): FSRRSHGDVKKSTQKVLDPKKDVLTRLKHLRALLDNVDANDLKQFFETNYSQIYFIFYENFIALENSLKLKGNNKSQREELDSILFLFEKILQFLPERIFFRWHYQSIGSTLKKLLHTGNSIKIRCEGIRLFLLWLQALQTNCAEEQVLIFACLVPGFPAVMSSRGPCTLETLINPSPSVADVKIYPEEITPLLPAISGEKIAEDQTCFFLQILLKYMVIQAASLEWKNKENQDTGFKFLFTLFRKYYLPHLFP

κB-Ras1 [1] = target: T2, κB-Ras1 (Homo sapiens, UniProt Q9NYS0); test: intrinsic GTP hydrolysis, HPLC of GTP/GDP; format: biochemical; details: 100 µM GTP, 24 h, 5 mM MgCl2, pH 7.5
T2 construct: gene NKIRAS1; residues 2-175, GST fusion from E. coli Rosetta, GST cut on column with PreScission protease, SEC
T2 sequence (Q9NYS0 2-175): T1 sequence (Q9NYS0 2-175)

κB-Ras1 [2] = target: T3, κB-Ras1 (Homo sapiens, UniProt Q9NYS0, L65Q); test: intrinsic GTP hydrolysis, HPLC of GTP/GDP; format: biochemical; details: 100 µM GTP, 24 h, 5 mM MgCl2, pH 7.5
T3 construct: gene NKIRAS1; residues 2-175, GST fusion from E. coli Rosetta, GST cut on column with PreScission protease, SEC
T3 sequence (Q9NYS0 2-175 L65Q): T1 sequence (Q9NYS0 2-175) with L64Q

κB-Ras1 [3] = target: T4, κB-Ras1 (Homo sapiens, UniProt Q9NYS0, G64A); test: intrinsic GTP hydrolysis, HPLC of GTP/GDP; format: biochemical; details: 100 µM GTP, 24 h, 5 mM MgCl2, pH 7.5
T4 construct: gene NKIRAS1; residues 2-175, GST fusion from E. coli Rosetta, GST cut on column with PreScission protease, SEC
T4 sequence (Q9NYS0 2-175 G64A): T1 sequence (Q9NYS0 2-175) with G63A

| Compound | X-ray crystal structure, 2.72 Å (κB-Ras1–RGα2N complex) | intrinsic GTP hydrolysis, HPLC of GTP/GDP (κB-Ras1 [1]) | intrinsic GTP hydrolysis, HPLC of GTP/GDP (κB-Ras1 [2]) | intrinsic GTP hydrolysis, HPLC of GTP/GDP (κB-Ras1 [3]) |
| --- | --- | --- | --- | --- |
| Nc1nc2c(ncn2[C@@H]2O[C@H](COP(=O)(O)OP(=O)(O)NP(=O)(O)O)[C@@H](O)[C@H]2O)c(=O)[nH]1 [GNP, 5′-guanylyl imidodiphosphate] | nucleotide-binding pocket of κB-Ras1 is occupied by a magnesium ion and the nonhydrolyzable GTP analog | – | – | – |
| Nc1nc2c(ncn2[C@@H]2O[C@H](COP(=O)(O)OP(=O)(O)OP(=O)(O)O)[C@@H](O)[C@H]2O)c(=O)[nH]1 [GTP] | – | intrinsic GTP hydrolysis by K-Ras, Rheb, κB-Ras1 WT, and variants measured in vitro | GTP hydrolysis was also not altered by this mutation | This substitution did not reduce intrinsic GTP hydrolysis activity of κB-Ras1 in vitro |
